US20070128217A1 (priority 2003, published 2007)

Columns and labels:
[1] = system: antibodies in sera from SARS patients (sera 1a, 1b, 2, 6, 37, 62, London, SARS-yellow, SARS-green); type: binding, human
[2] = system: control sera (pooled serum of ten healthy LUMC hospital workers; commercial negative donor pooled serum from the Dutch bloodbank); type: binding, human
[3] = system: rabbit serum obtained by immunizing a rabbit with the SARS-CoV strain Frankfurt 1; type: binding; parameters: Binding of a rabbit serum to linear peptides / Binding of a rabbit serum to looped peptides / Rabbit serum linear peptides / Rabbit serum looped peptides / Binding of a rabbit serum to linear peptides of protein N of SARS-CoV Urbani (Rabbit serum linear peptides) / Binding of a rabbit serum to looped/cyclic peptides of protein N of SARS-CoV Urbani (Rabbit serum looped peptides): unit not given here

YSFVSEETGTLIVNS
0.6: Binding of serum 37 to linear peptides of protein E of SARS-CoV Urbani [1] | Binding of serum SARS-yellow to linear peptides of protein E of SARS-CoV Urbani [1] | Binding of Control Serum Blood-Bank to Looped peptides [2]
0.2: Binding of a rabbit serum to linear peptides [3]
0.5: Binding of serum 1b to looped/cyclic peptides of protein E of SARS-CoV Urbani [1] | Binding of serum 2 to linear peptides of protein E of SARS-CoV Urbani [1] | Binding of serum 6 to linear peptides of protein E of SARS-CoV Urbani [1] | Binding of serum 62 to linear peptides of protein E of SARS-CoV Urbani [1]
1.0: Binding of Control serum LUMC to linear peptides [2]
0.7: Binding of serum 1a to looped/cyclic peptides of protein E of SARS-CoV Urbani [1] | Binding of serum 1b to linear peptides of protein E of SARS-CoV Urbani [1] | Binding of serum 2 to looped/cyclic peptides of protein E of SARS-CoV Urbani [1] | Binding of serum London to linear peptides of protein E of SARS-CoV Urbani [1] | Binding of serum SARS-green to linear peptides of protein E of SARS-CoV Urbani [1] | Binding of serum SARS-yellow to looped/cyclic peptides of protein E of SARS-CoV Urbani [1] | Binding of Control serum Blood-bank to linear peptides [2]
0.4: Binding of serum 6 to looped/cyclic peptides of protein E of SARS-CoV Urbani [1] | Binding of serum London to looped/cyclic peptides of protein E of SARS-CoV Urbani [1] | Binding of serum SARS-green to looped/cyclic peptides of protein E of SARS-CoV Urbani [1] | Binding of a rabbit serum to looped peptides [3]
0.8: Binding of serum 1a to linear peptides of protein E of SARS-CoV Urbani [1] | Binding of serum 37 to looped/cyclic peptides of protein E of SARS-CoV Urbani [1] | Binding of serum 62 to looped/cyclic peptides of protein E of SARS-CoV Urbani [1] | Binding of Control serum LUMC to looped peptides [2]
